# Data reported in patent US11976046B1, “4-(4,5-bis(4-bromophenyl)-2-(4-methoxyphenyl)-1H-imidazol-1-yl)benzoic acid as an antimicrobial compound” (KING FAISAL UNIVERSITY, priority 2023, dated 2024).
# System: different microbes
# Test: agar plate disc-diffusion antimicrobial testing
# Assay type: cell-based
# Settings: against different microbes; screened against gram-positive Bacillus cereus and Staphylococcus aureus, gram-negative Pseudomonas aeruginosa and Escherichia coli, fungi Aspergillus flavus and Chrysosporium keratinophilum
# Protocol: The agar plate disc-diffusion method was applied. Sterilized filter papers (6 mm in diameter) were wetted with 10 μL of a solution of 4-(4,5-bis(4-bromophenyl)-2-(4-methoxyphenyl)-1H-imidazol-1-yl)benzoic acid (V) to be tested, containing 10 mg/mL in DMSO, and the discs were allowed to air dry. The discs were then placed onto the surface of agar plates (nutrient agar for bacteria and Sabouraud's dextrose agar for fungi) seeded with the test organism. Each plate contained 15 mL of the agar medium, previously seeded with 0.2 mL of the broth culture of each organism pregrown for 18 hours. The plates were incubated at 37° C. for 48 hours, and 72 hours for fungi. The inhibition zones was measured in mm. Discs impregnated with DMSO were used as a control, and its inhibition zone was subtracted from the tested compound actual inhibition zone.
smiles,measurement,value
"COc1ccc(-c2nc(-c3ccc(Br)cc3)c(-c3ccc(Br)cc3)n2-c2ccc(C(=O)O)cc2)cc1 [V, 4-(4,5-bis(4-bromophenyl)-2-(4-methoxyphenyl)-1H-imidazol-1-yl)benzoic acid]",antimicrobial activities,excellent antimicrobial activities
